Data on 41 compounds can be found in article PMC6136712, “Ex vivo drug sensitivity testing as a means for drug repurposing in esophageal adenocarcinoma” (PLoS ONE, 2018).

Structures can show the parent of a compound that is named as a salt. Where only a bound is given, the exact number is not on record here.

The test system of this experiment is normal esophageal epithelium cell line EACN42. As to the kind of experiment: FDA library drug sensitivity testing (CellTiter-Glo, 72 h), normal control cells. The experiment is classed as cell-based, human. More on the design: key to DSS: modified drug sensitivity score (DSSmod) from dose-response curve fit. Conditions: 72 h, EACN42 normal esophageal cells; for EC50: cell viability (ATP), max test concentration 10μM; for DSS: drug sensitivity score. The procedure:
The normal esophageal epithelium cell line EACN42 was established in the Capobianco laboratory. The cell lines was derived from human normal epithelium and immortalized using HPV E6-E7.
Drug sensitivity testing (DST) was performed as described previously. […] Individual drugs were dissolved in 100% DMSO and tested in duplicates starting at a maximal test concentration of 10μM then over a 20,000-fold concentration range to generate dose response curves. Wells with assay buffer containing DMSO served as negative controls. 1000 exponentially growing cells were seeded per well in 384-well micro-titer plates and incubated in the presence of compounds in a humidified environment at 37°C and 5% CO2. After 72 hours of treatment, cell viability was assessed by measuring ATP levels via bioluminescence (CellTiter-Glo, Promega) according to manufactures recommendations. Interpretation of curve parameters was performed according to the modified drug sensitivity scoring (DSSmod) function developed by Swords et al. […] Given in this way, the sDSSmod incorporated information on each drug’s potency, efficacy, effect range and therapeutic index, making it possible to prioritize compounds over multiple parameters using a single numerical metric. […] All calculations and scoring routines are implemented in MatLab and additional curve fitting and statistical analyses are performed in GraphPad prism.
On the technique in general: ATP-based viability assays read luminescence as a measure of living cells.

A word on the EC50: it is the midpoint of the concentration-response curve. `COc1cc2c(cc1O)CC[C@@H]1[C@@H]2CC[C@]2(C)[C@@H](O)CC[C@@H]12` [2-Methoxyestradiol] came in with a DSS of 0.26. This compound registered a 50% effective concentration (EC50) (Homo sapiens) greater than 10000 nM. For `CC/C(=C(/CC)c1ccc(O)cc1)c1ccc(O)cc1` [Diethylstilbestrol], the DSS is reported as 0. Regarding `CC(=O)Oc1ccccc1C(=O)O` [Aspirin], the “treatment response in words” value is given as “low or no activity” and the DSS was found to be 0.

`C[C@@H]1C[C@H]2[C@@H]3CCC4=CC(=O)C=C[C@]4(C)[C@@]3(F)[C@@H](O)C[C@]2(C)[C@@]1(O)C(=O)CO` [Dexamethasone] registered a DSS of 0. As to `CCCC(CCC)C(=O)O` [Valproic acid sodium salt], the DSS is given as 0. Moreover, the EC50 (Homo sapiens) was 2000 nM. In turn, `COc1ccc2[n-]c([S@@+]([O-])Cc3ncc(C)c(OC)c3C)nc2c1.[Na+]` [Esomeprazole sodium] came in with a DSS of 0. The same measure, in the same setting: then `CCOC(=O)[C@H](CCc1ccccc1)N[C@H]1CS[C@H](c2cccs2)CN(CC(=O)O)C1=O` [Temocapril HCl], with 0. Still for that read-out and setting: then `C[C@]12CCC(=O)C=C1CC[C@@H]1[C@@H]2[C@@H](O)C[C@@]2(C)[C@H]1CC[C@]2(O)C(=O)CO` [Hydrocortisone], with 0. `CN[C@H]1C[C@@H](N)[C@H](O)[C@@H](O[C@@H]2O[C@H](CO)[C@H](O)[C@@H]3OC4(O[C@H]23)O[C@H]([C@@H](N)CO)[C@H](O)[C@H](O)[C@H]4O)[C@@H]1O` (some centres unmarked) [Hygromycin B] had an EC50 of 7770 nM and a DSS of 3.8.

`COc1ccc2c(c1OC)C(=O)O[C@@H]2[C@H]1c2c(cc3c(c2OC)OCO3)CCN1C` [Noscapine HCl] registered a DSS of 0.

`CCC[C@@H]1C[C@@H](C(=O)N[C@@H]([C@H]2O[C@H](SC)[C@H](O)[C@@H](O)[C@H]2O)[C@@H](C)O)N(C)C1` [Lincomycin hydrochloride] returned a DSS of 0. Further, for the setting “Homo sapiens”, the EC50 was 990 nM. For `NC(=O)c1ncn([C@@H]2O[C@H](CO)[C@@H](O)[C@H]2O)c1O` [Mizoribine], in that order: 0 and 6 nM. `C[C@@]12C[C@@]3(O)O[C@@H](O1)[C@]1(COC(=O)c4ccccc4)[C@H]3C[C@@]12O[C@@H]1O[C@H](CO)[C@@H](O)[C@H](O)[C@H]1O` [Paeoniflorin] yielded a DSS of 0. The same measure, in the same setting: then `CC(=O)O[C@]1(C(C)=O)CC[C@H]2[C@@H]3C=C(C)C4=CC(=O)CC[C@]4(C)[C@H]3CC[C@@]21C` [Megestrol Acetate], with 0. Same read-out and setting: the result for `Cn1nnc2c(C(N)=O)ncn2c1=O` [Methazolastone] reads 0. For the compound `C=C1/C(=C\C=C2/CCC[C@]3(C)[C@@H]([C@H](C)/C=C/[C@H](C)C(C)C)CC[C@@H]23)C[C@@H](O)C[C@@H]1O` [Doxercalciferol], the DSS turned out to be 0. The EC50 (Homo sapiens) is 7 nM.

`CC(=O)OCC(=O)[C@@]1(O)CC[C@H]2[C@@H]3CCC4=CC(=O)CC[C@]4(C)[C@H]3C(=O)C[C@@]21C` [Cortisone acetate] displayed a DSS of 0. The same measure, in the same setting: then `CCCCC1C(=O)N(c2ccccc2)N(c2ccccc2)C1=O` [Phenylbutazone], with 0. `CC(=O)O[C@@]12CO[C@@H]1C[C@H](O)[C@@]1(C)C(=O)[C@H](O)C3=C(C)[C@@H](O)C[C@@](O)([C@@H](OC(=O)c4ccccc4)[C@H]21)C3(C)C` [10-DAB] had an EC50 of 5480 nM and a DSS of 0.01. Turning to `Nc1nc(CC(=O)Nc2ccc(CCNC[C@H](O)c3ccccc3)cc2)cs1` [Mirabegron], the DSS amounted to 0. This compound gave an EC50 (Homo sapiens) of 20 nM. With `CCN(CC)CCOc1ccc(C(=C(Cl)c2ccccc2)c2ccccc2)cc1` [Clomifene citrate], the DSS is 0.

Compound `CC(=O)OCC(=O)[C@@]1(O)[C@H](C)C[C@H]2[C@@H]3CCC4=CC(=O)C=C[C@]4(C)[C@@]3(F)[C@@H](O)C[C@@]21C` [Dexamethasone acetate] showed a DSS of 0. On to `N.N.O=C([O-])C1(C(=O)[O-])CCC1.[Pt+2]` [Carboplatin], for which the “treatment response in words” value was “minimal treatment effects”, the EC50 was found to be 2370 nM and the DSS was found to be 3.68. The compound `CC1=C(/C=C/C(C)=C/C=C/C(C)=C\C(=O)O)C(C)(C)CCC1` [Isotretinoin] had a DSS of 0. Regarding `C=C1c2cccc(O)c2C(=O)C2=C(O)[C@]3(O)C(=O)C(C(N)=O)=C(O)[C@@H](N(C)C)[C@@H]3[C@@H](O)[C@H]12` [Methacycline hydrochloride], the DSS came out at 0. Besides, under “Homo sapiens”, the EC50 is greater than 10000 nM. Regarding `CC(=O)O[C@]1(C(C)=O)CC[C@H]2[C@@H]3C[C@H](C)C4=CC(=O)CC[C@]4(C)[C@H]3CC[C@@]21C` [Medroxyprogesterone acetate], the DSS was found to be 0. The compound `Cc1nc(-c2ccc(OCC(C)C)c(C#N)c2)sc1C(=O)O` [Febuxostat] returned a DSS of 0. This compound registered an EC50 (Homo sapiens) greater than 10000 nM. For `CNC(=O)c1cc(Oc2ccc(NC(=O)Nc3ccc(Cl)c(C(F)(F)F)c3)c(F)c2)ccn1` [Regorafenib], in that order: 1.85 and greater than 10000 nM.

For the compound `N#Cc1ccc(C(c2ccc(C#N)cc2)n2cncn2)cc1` [Letrozole], the DSS is recorded as 0. The concentration for a half-maximal effect (EC50) (Homo sapiens) amounted to 60 nM. For `COC(=O)C1=C(C#N)NC(C)=C(C(=O)OC(C)C)C1c1cccc([N+](=O)[O-])c1` (centres unmarked) [Nilvadipine], in that order: 0 and 10 nM. `COc1cc2ncnc(Nc3ccc(F)c(Cl)c3)c2cc1OCCCN1CCOCC1` [Gefitinib]: the DSS is reported as 0. Still for that read-out and setting: the result for `C[C@@H](O[C@H]1OCCN(Cc2n[nH]c(=O)[nH]2)[C@H]1c1ccc(F)cc1)c1cc(C(F)(F)F)cc(C(F)(F)F)c1` [Aprepitant] reads 0. The compound `Nc1cccc2c1C(=O)N(C1CCC(=O)NC1=O)C2=O` (centres unmarked) [Pomalidomide] displayed a DSS of 0. The compound also displayed an EC50 (Homo sapiens) of 0.158 nM.

`C[C@]12C=CC(=O)C=C1CC[C@@H]1[C@@H]2C(=O)C[C@@]2(C)[C@H]1CC[C@]2(O)C(=O)CO` [Prednisone] showed a DSS of 0. `CC1COc2c(N3CCN(C)CC3)c(F)cc3c(=O)c(C(=O)O)cn1c23` (centres unmarked) [Ofloxacin]: the DSS came out at 0.

As to `CC#CCn1c(N2CCC[C@@H](N)C2)nc2c1c(=O)n(Cc1nc(C)c3ccccc3n1)c(=O)n2C` [Linagliptin], the DSS turned out to be 0. For the setting “Homo sapiens”, the EC50 was 380 nM.

In turn, `CCN(CC)CCNC(=O)c1c(C)[nH]c(/C=C2\C(=O)Nc3ccc(F)cc32)c1C` [Sunitinib Malate] showed a DSS of 0. Under “Homo sapiens”, this compound showed a half-maximal effective concentration (EC50) of 10 nM. `CC#C[C@]1(O)CC[C@H]2[C@@H]3CCC4=CC(=O)CCC4=C3[C@@H](c3ccc(N(C)C)cc3)C[C@@]21C` [Mifepristone] yielded a DSS of 0. `CC(=O)OCC(CCn1cnc2cnc(N)nc21)COC(C)=O` [Famciclovir] yielded a DSS of 0. Besides, under “Homo sapiens”, the response was half-maximal at 1120 nM (EC50). For `CC1=NN(c2ccc(C)c(C)c2)C(=O)/C1=N\Nc1cccc(-c2cccc(C(=O)O)c2)c1O` [Eltrombopag], in that order: 0.32 and 4660 nM.

In the case of `C[C@H]1C[C@H]2[C@@H]3CCC4=CC(=O)C=C[C@]4(C)[C@H]3C(=O)C[C@]2(C)[C@@]1(O)C(=O)CO` [Betapar], the DSS is reported as 0.
